Assays:
[1] = Cytotoxicity against human HBI10A cells after 20 hrs by MTS assay; type: cell-based
Hepatitis C virus = assay: Antiviral activity against HCV infected in human HBI10A cells assessed as inhibition of viral-NS3 expression by ELISA; type: functional, organism-based, Hepacivirus hominis
[2] = Selectivity index, ratio of CC50 for human HBI10A cells to IC50 for HCV; type: functional

Compound | CC50 at 20 h [1] [µM] | IC50 (Hepatitis C virus) [µM] | Ratio CC50/IC50 [2]
CC(C)(C)OC(=O)N1[C@H](CO)C[C@@H](O)[C@@H]1n1ccc(=O)[nH]c1=O | > 1000 | 40.6 | 
CC(C)(C)OC(=O)N1[C@H](CO)C[C@@H](O)[C@@H]1n1ccc(N)nc1=O | > 1000 | 96 | 
CCOC(=O)N1[C@H](CO)C[C@@H](O)[C@H]1n1cc(F)c(=O)[nH]c1=O | 200 | > 1000 | 
CCOC(=O)N1[C@H](CO)C[C@@H](O)[C@@H]1n1cc(F)c(=O)[nH]c1=O | > 1000 | 4.8 | >=208
CC(C)(C)OC(=O)N1[C@H](CO)C[C@@H](O)[C@@H]1n1cc(F)c(=O)[nH]c1=O | 623 | 0.00035 | 
Cc1cn([C@H]2[C@H](O)C[C@@H](CO)N2C(=O)OC(C)(C)C)c(=O)[nH]c1=O | > 1000 | 0.018 | 

From ChEMBL document CHEMBL1136913, “Stereoselective synthesis and biological evaluations of novel 3'-deoxy-4'-azaribonucleosides as inhibitors of hepatitis C virus RNA replication” (J Med Chem, 2009)
